ChEMBL document CHEMBL1909046, “DrugMatrix in vitro pharmacology data”

Tests used:
Melanocortin receptor 5 = Melanocortin receptor 5 (Homo sapiens, UniProt P33032); type: cell membranes, HEK293, Membrane; also: in other assays of this panel Not Active means under 50% inhibition at 10 µM
[1] = biological target: T1, Alpha-2C adrenergic receptor (Homo sapiens, UniProt P18825); test: DRUGMATRIX: Adrenergic Alpha-2C radioligand binding (ligand: [3H] MK-912); type: cell membranes, Sf9, Membrane; conditions: sf9; as to IC50: call rule not given here
T1 sequence (P18825 whole entry): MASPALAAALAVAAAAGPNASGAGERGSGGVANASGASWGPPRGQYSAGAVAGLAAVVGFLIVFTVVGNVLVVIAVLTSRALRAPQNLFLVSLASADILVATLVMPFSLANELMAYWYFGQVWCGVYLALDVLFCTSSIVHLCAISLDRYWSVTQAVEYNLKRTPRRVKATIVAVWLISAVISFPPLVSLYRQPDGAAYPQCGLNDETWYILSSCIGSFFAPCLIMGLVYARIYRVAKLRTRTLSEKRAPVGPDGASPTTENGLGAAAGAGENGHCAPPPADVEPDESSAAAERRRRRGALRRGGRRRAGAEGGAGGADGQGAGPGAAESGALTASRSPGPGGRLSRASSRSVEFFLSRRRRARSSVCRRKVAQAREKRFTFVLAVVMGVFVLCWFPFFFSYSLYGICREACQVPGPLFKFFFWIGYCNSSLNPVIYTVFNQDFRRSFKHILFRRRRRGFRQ

[2] = biological target: T2, Alpha-1D adrenergic receptor (Homo sapiens, UniProt P25100); type: cell membranes, HEK293, Membrane; also: in other assays of this panel Not Active means under 50% inhibition at 10 µM
T2 sequence (P25100 whole entry): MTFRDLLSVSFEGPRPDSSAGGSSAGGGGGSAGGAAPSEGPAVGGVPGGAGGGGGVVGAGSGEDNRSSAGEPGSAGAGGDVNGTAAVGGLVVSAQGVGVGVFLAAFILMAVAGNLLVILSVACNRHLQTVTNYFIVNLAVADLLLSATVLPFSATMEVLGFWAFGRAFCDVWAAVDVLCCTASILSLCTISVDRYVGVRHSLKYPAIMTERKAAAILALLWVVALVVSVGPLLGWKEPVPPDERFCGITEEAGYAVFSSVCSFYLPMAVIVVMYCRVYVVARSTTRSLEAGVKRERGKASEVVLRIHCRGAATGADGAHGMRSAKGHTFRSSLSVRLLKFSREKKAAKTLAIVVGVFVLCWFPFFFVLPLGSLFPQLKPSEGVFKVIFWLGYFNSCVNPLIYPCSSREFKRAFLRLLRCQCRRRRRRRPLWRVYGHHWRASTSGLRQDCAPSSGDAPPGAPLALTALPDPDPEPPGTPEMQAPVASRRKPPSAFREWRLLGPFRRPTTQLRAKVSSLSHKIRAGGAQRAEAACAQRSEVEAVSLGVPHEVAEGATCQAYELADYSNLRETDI

[3] = biological target: T3, 3-hydroxy-3-methylglutaryl-coenzyme A reductase (Homo sapiens, UniProt P04035); design: species or system Escherichia coli;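 also: enzyme inhibition assay of HMG-CoA reductase using radiolabeled [14C]HMG-CoA as substrate; in other assays of this panel Not Active means under 50% inhibition at 10 µM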
T3 sequence (P04035 whole entry): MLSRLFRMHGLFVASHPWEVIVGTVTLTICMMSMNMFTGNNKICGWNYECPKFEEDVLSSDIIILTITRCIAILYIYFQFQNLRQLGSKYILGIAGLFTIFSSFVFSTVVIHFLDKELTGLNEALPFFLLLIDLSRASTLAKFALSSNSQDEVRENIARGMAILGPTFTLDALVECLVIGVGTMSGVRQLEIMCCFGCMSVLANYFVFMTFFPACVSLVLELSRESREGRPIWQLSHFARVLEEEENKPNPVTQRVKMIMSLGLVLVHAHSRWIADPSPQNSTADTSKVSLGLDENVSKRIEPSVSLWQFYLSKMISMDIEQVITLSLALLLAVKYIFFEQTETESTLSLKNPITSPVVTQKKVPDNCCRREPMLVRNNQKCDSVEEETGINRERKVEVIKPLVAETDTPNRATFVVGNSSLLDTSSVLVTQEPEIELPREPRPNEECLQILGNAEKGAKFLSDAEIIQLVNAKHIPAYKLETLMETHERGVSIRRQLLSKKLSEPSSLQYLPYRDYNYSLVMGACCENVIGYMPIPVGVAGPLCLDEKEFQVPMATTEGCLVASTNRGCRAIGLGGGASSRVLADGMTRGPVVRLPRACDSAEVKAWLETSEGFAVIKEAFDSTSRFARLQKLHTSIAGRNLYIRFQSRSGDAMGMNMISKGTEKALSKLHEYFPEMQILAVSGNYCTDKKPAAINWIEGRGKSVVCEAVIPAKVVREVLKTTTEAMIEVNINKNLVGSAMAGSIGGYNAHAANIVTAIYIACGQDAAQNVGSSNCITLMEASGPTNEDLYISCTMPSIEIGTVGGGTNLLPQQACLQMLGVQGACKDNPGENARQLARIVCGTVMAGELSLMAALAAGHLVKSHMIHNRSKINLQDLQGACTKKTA

[4] = biological target: T4, 5-hydroxytryptamine receptor 1A (Rattus norvegicus, UniProt P19327); type: cell membranes, CHO-K1, Membrane; also: in other assays of this panel Not Active means under 50% inhibition at 10 µM
T4 sequence (P19327 whole entry): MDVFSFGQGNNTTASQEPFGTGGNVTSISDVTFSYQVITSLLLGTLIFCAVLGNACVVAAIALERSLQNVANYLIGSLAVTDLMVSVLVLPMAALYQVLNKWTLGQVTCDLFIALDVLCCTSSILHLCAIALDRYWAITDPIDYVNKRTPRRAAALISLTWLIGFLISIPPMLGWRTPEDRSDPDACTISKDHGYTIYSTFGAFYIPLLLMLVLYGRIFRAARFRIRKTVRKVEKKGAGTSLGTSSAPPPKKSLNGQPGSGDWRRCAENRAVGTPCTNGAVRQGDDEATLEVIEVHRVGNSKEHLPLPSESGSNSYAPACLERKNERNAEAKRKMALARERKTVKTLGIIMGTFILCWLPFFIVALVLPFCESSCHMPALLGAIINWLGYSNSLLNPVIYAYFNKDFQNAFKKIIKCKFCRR

Chain of Melanocortin receptor 5 (P33032 whole entry): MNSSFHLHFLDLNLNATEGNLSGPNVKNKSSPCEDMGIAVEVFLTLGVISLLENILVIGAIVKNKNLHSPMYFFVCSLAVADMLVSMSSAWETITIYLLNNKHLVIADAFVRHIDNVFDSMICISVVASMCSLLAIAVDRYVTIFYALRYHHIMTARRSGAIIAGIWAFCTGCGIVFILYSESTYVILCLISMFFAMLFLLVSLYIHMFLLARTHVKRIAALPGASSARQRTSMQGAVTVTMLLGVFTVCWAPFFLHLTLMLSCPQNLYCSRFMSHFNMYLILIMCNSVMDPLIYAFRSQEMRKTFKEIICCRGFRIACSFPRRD

Row | Compound | IC50 (Melanocortin receptor 5; hek293) | IC50 [1] | IC50 ([2]; hek293) | IC50 [3] | IC50 ([4]; read-out: IC50) [µM] | Ki ([4]; read-out: Ki) [µM] | IC50 ([4]; cho-k1) | Ki (Melanocortin receptor 5; hek293) | Ki [1] | Ki ([2]; hek293) | Ki [3] | Ki ([4]; cho-k1) | IC50 (Melanocortin receptor 5; read-out: IC50) [µM] | Ki (Melanocortin receptor 5; read-out: Ki) [µM] | IC50 ([2]; read-out: IC50) [µM] | Ki ([2]; read-out: Ki) [µM]
1 | CC(C)(C)NC(=O)[C@@H]1C[C@@H]2CCCC[C@@H]2CN1C[C@@H](O)[C@H](Cc1ccccc1)NC(=O)[C@H](CC(N)=O)NC(=O)c1ccc2ccccc2n1 | Not Active | Not Active | Not Active | Not Active | 4.27 | 2.44 |  |  |  |  |  |  |  |  |  | 
2 | Nc1nc2nc[nH]c2c(=S)[nH]1 [THIOGUANINE] | Not Active | Not Active | Not Active | Not Active |  |  | Not Active |  |  |  |  |  |  |  |  | 
3 | SODIUM NITROPRUSSIDE | Not Active | Not Active | Not Active | Not Active |  |  | Not Active | Not Active | Not Active | Not Active | Not Active | Not Active |  |  |  | 
4 | Cn1ccnc1S [METHIMAZOLE] | Not Active | Not Active | Not Active | Not Active |  |  | Not Active |  |  |  |  |  |  |  |  | 
5 | Cc1oncc1C(=O)Nc1ccc(C(F)(F)F)cc1 [LEFLUNOMIDE] | Not Active | Not Active | Not Active | Not Active |  |  | Not Active |  |  |  |  |  |  |  |  | 
6 | CC/C(=C(\c1ccccc1)c1ccc(OCCN(C)C)cc1)c1ccccc1 [TAMOXIFEN] |  | Not Active |  | Not Active | 12.2 | 6.95 |  |  |  |  |  |  | 26.5 | 24.9 | 4.98 | 2.45
7 | COc1c(C)c2c(c(O)c1C/C=C(\C)CCC(=O)O)C(=O)OC2 [MYCOPHENOLIC ACID] | Not Active | Not Active | Not Active | Not Active |  |  | Not Active |  |  |  |  |  |  |  |  | 
8 | CCCOc1ccccc1-c1nc2nn[nH]c2c(=O)[nH]1 [ZAPRINAST] | Not Active | Not Active | Not Active | Not Active |  |  | Not Active |  |  |  |  |  |  |  |  | 
9 | C=CCC1(C(C)CCC)C(=O)NC(=O)NC1=O (centres undefined) [SECOBARBITAL] | Not Active | Not Active | Not Active | Not Active |  |  | Not Active |  |  |  |  |  |  |  |  | 
10 | CC(=O)[C@@]1(O)CC[C@H]2[C@@H]3C[C@H](C)C4=CC(=O)CC[C@]4(C)[C@H]3CC[C@@]21C | Not Active | Not Active | Not Active | Not Active |  |  | Not Active |  |  |  |  |  |  |  |  | 
11 | N#CC(C#N)=Cc1ccc(O)c(O)c1 [TYRPHOSTIN 23] | Not Active | Not Active | Not Active | Not Active |  |  | Not Active |  |  |  |  |  |  |  |  | 
